According to patent publication US20240150279A1, “C PRIME AGENTS FOR TREATING METABOLIC DISORDERS” (The University of Toledo, priority 2021, published 2024):

Test system: PDX1-BIRC5-Survivin axis

Q: Which “activity in the PDX1-BIRC5-Survivin bioassays” value does the source give for `CCC(C)(C)C(=O)OC1CC(C)C=C2C=CC(C)C(CCC(O)CC(O)CC(=O)NO)C21` (stereo not shown) [Sim-CONHOH, Simvastatin-NHOH] here?
A: active
